In paper PMC5766608, “Target engagement imaging of PARP inhibitors in small-cell lung cancer” (Nature Communications, 2018):
Entries after “also recorded” stand apart in the source; their conditions may differ.

Assays:
PARP1 = target: T1, PARP1 (Homo sapiens, UniProt P09874); assay: PARP family enzyme activity inhibition screening (BPS Bioscience); type: biochemical; conditions: 100 nM inhibitor
T1 construct: purchased BPS Bioscience, San Diego, CA
Method: (§1) Fig. 1 Properties of PARP inhibitors. a Structures of 5 clinical therapeutic PARP inhibitors and the 2 PARP imaging agents. b Heatmap visualizing enzymatic activity screening of 10 small molecules against 12 PARP enzymes at 100 nM concentration (for additional concentrations, see Supplementary Fig. 1)
(§2) Assay was performed by BPS Bioscience, San Diego, CA. 100 µM DMSO solutions of each inhibitor were provided, and the assay was conducted after dilution to 100, 50, or 10 nM. […] Data was reported by BPS as % Enzyme Activity. Triplicates were combined to get a mean ± SD, and these were grouped and plotted onto a heatmap using Prism 7.
(§3) Supplementary Figure 1 | PARP enzyme family binding assays at additional concentrations.
(§4) histone substrate and biotin-labeled NAD+ at 100 nM (Fig. 1b), 50 nM (left) and 10 nM (right) for
(§5) each inhibitor and each enzyme.

PARP2 = target: T2, PARP2 (Homo sapiens, UniProt Q9UGN5); assay: as above; type: biochemical; conditions: 100 nM inhibitor
T2 construct: purchased BPS Bioscience, San Diego, CA
Method: as §1, §2, §3, §4, §5

PARP3 = target: T3, PARP3 (Homo sapiens, UniProt Q9Y6F1); assay: as above; type: biochemical; conditions: 100 nM inhibitor
T3 construct: purchased BPS Bioscience, San Diego, CA
T3 sequence (Q9Y6F1 1-533): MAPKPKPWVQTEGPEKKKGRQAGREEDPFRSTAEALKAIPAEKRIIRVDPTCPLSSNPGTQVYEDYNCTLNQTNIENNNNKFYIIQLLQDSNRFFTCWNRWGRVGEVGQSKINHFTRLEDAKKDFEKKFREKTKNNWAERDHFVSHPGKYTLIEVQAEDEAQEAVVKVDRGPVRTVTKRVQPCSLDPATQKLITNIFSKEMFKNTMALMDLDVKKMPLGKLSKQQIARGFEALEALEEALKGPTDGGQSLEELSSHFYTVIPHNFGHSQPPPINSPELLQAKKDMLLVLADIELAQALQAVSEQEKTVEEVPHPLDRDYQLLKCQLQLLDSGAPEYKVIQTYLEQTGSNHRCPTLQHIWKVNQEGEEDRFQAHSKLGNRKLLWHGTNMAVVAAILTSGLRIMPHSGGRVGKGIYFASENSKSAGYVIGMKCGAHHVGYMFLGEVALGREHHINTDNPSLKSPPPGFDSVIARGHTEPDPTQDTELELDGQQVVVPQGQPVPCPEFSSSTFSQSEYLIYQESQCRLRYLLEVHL
Method: as §1, §2, §3, §4, §5

JHU-LX22 cells = assay: Cytotoxicity, Alamar Blue assay; type: cell-based, human; conditions: 24-96 h
Method: […]. Cells were plated in 96-well plates (black, clear-bottom, Corning Incorporated) at a density of 5,000 cells/well and allowed them to attach for 24 h. All compounds were prepared as 10 mM stock solutions in DMSO and further diluted in media. Cells were treated with 0, 2, 5, and 10 µM (final solutions containing 1% DMSO) of each compound for 24, 48, 72 and 96 h. Then, media was removed and Alamar Blue reagent was added to each well. Plates were incubated at 37 °C for 4 h under protection from direct light. Fluorescence was read (bottom-read mode) using an excitation wavelength of 570 nm and an emission wavelength of 585 nm on a SpectraMax M5 microplate reader (Molecular Devices, Sunnyvale, CA, USA). The average reading values were analyzed by subtracting the background readings (wells with Alamar Blue but without cells) and compared against the untreated controls of each plate (defined as 100% viability) to determine the percentage of living cells. The experiment was carried out in three biological replicates with four parallels of each compound.
Supplementary Figure 9 | In vitro toxicity of the tested PARP inhibitors and imaging tracers on JHU-LX22 cells. (a) Assessment of viable cell population during flow cytometry after a 2 hour incubation time of several PARP inhibitors at concentrations between 0 and 5 µM. (b) Cell viability determination using Alamar Blue assays. Cells were incubated with 0, 0.2, 2, 5 or 10 µM of each compound for 24, 48, 72 or 96 h and cell viability was assessed using the Alamar Blue assay. (c) IC values derived from Alamar Blue assays at 72 h and 96 h.
Viability data represent means from three independent experiments, each with four parallels of each sample. Error bars represent the standard error (SEM). […]

PARP1/2 [1] = assay: Blocking of PARPi-FL uptake by PARP inhibitors (confocal microscopy, flow cytometry); type: cell-based, human; conditions: JHU-LX22 cells
Method: (§6) Cells were then treated with fluorescent imaging agent PARPi-FL and either imaged via confocal microscopy or measured via flow cytometry. […] Then, cells were trypsinized, subjected to flow cytometry and analyzed for the relative PARPi-FL fluorescence signal. […] Error bars represent the SD of three independent experiments with three parallels each
We conducted confocal laser scanning microscopy to visualize the extent of intracellular blocking of PARPi-FL uptake by different PARPi. […] PARPi-FL was removed and cells were washed in fresh medium for 10 min. Next, cells were treated with 4% Paraformaldehyde (PFA) for 8 min on ice to ensure fixation. […] PARPi-FL intensity was determined by measuring the PARPi-FL fluorescence intensity in all nuclei, which were thresholded using Hoechst staining.
(§7) After the respective treatment/staining, which is described below for the different experiments, cells were washed in PBS, trypsinized, washed with flow buffer (1% BSA (w/v) in PBS), transferred to 5 mL flow cytometry tubes through the 40 µm cell strainer cap and left on ice until measurement in the flow cytometer (Fortessa II). Raw data were processed in FlowJo software in order to calculate PARPi-FL uptake per cell. Dead cells were excluded by eliminating DAPI positive cells from the analysis (Supplementary Fig. 8). Cell clumps and debris were eliminated using the corresponding gates (forward and side scatter) for the unstained cell population. PARPi-FL fluorescence was imaged in the FITC channel against side scatter (area).
Controls (cells incubated with medium instead of a PARP inhibitor) served as reference value and their PARPi-FL signal was defined as 100%.
To quantify the extent of blocking of PARPi-FL uptake by different PARPi, we quantified the intracellular PARPi-FL uptake in JHU-LX22 cells after incubation with PARP inhibitors.

PARP1/2 [2] = assay: In vitro binding kinetics by recovery of PARPi-FL binding (flow cytometry); type: cell-based, human; conditions: JHU-LX22 cells, 0.2 µM inhibitor 25 min, washed, 0-48 h post-incubation, two phase decay fit
Method: as §6, §7
We furthermore determined the duration of PARPi binding to their target site. […] Then, cells were subjected to flow cytometry as described above. […] We determined the duration of binding of the PARPi indirectly by calculating the recovery of PARP-FL binding with increasing times between PARPi and PARPi-FL treatment. Decay curves were calculated with Prism using two phase decay least squares regression.

T2 sequence (Q9UGN5 whole entry): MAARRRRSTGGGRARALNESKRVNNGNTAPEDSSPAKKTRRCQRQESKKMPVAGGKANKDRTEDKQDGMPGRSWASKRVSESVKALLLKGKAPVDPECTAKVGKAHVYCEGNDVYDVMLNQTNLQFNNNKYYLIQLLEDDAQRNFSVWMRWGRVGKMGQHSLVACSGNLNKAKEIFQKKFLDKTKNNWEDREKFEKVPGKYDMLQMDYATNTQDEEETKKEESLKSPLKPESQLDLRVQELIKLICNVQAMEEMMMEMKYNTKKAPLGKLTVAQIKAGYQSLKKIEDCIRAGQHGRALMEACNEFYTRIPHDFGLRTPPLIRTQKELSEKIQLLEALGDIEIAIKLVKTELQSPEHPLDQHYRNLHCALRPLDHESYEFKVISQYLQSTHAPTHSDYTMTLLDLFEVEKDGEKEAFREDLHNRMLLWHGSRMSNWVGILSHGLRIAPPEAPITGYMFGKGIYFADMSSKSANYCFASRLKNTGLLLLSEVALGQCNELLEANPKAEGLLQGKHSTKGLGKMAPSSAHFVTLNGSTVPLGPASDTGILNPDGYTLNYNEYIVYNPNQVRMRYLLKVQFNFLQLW
T1 sequence (P09874 whole entry): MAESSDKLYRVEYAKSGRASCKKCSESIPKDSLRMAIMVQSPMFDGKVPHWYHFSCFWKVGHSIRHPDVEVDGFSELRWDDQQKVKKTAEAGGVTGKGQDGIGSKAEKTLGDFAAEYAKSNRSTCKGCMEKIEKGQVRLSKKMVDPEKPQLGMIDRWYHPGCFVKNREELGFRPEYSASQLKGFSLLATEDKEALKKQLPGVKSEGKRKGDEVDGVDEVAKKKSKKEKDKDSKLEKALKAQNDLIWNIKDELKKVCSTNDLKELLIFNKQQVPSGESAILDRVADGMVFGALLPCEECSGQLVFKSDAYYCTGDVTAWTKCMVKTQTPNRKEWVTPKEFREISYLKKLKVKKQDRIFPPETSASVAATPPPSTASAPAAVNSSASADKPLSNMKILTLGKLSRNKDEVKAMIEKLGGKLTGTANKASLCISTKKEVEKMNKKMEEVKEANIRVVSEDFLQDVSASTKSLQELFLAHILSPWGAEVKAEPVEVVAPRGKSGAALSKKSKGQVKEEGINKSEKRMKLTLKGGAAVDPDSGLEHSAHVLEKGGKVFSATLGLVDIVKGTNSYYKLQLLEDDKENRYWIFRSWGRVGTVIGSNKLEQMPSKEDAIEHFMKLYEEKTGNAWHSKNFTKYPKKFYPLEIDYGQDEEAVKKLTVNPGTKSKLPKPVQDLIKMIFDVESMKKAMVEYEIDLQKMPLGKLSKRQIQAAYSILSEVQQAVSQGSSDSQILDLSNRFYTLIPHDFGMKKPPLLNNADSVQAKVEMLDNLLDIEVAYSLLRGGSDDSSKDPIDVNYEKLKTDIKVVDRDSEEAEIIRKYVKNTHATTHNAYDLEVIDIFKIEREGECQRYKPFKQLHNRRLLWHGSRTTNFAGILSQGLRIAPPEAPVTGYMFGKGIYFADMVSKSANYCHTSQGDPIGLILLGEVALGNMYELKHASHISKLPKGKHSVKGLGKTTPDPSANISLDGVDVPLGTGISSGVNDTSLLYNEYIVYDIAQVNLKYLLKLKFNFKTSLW

inhibition at 0.1 µM (PARP1)	inhibition at 0.1 µM (PARP2)	inhibition at 0.1 µM (PARP3)	Structure (SMILES)	Effect on JHU-LX22 cell viability, in words (JHU-LX22 cells)	Blocking of PARPi-FL uptake / target engagement, in words (PARP1/2 [1]; pretreatment with inhibitor, then PARPi-FL)	Retention on PARP1/2 binding sites, in words (PARP1/2 [2])	Inhibition of PARP1 enzyme activity (PARP1)	Inhibition of PARP2 enzyme activity (PARP2)	Inhibition of PARP3 enzyme activity (PARP3)	Blocking of PARPi-FL uptake (PARP1/2 [1]; pretreatment with PARP inhibitor 25 min, then PARPi-FL 15 min)
> 90%	> 90%	≤ 30%	CC1=CC(C)=[N+]2C1=Cc1ccc(CCC(=O)N3CCN(C(=O)c4cc(Cc5n[nH]c(=O)c6ccccc56)ccc4F)CC3)n1[B-]2(F)F [PARPi-FL]	very similar effects on JHU-LX22 cell viability as other inhibitors; also recorded: very similar effects on JHU-LX22 cell viability as olaparib						
			Cn1ncnc1[C@H]1c2n[nH]c(=O)c3cc(F)cc(c23)N[C@@H]1c1ccc(F)cc1 [Talazoparib, (8S,9R)-5-Fluoro-8-(4-fluorophenyl)-9-(1-methyl-1H-1,2,4-triazol-5-yl)-2,7,8,9-tetrahydro-3H-pyrido[4,3,2-de]phthalazin-3-one]	most sensitive	most complete target engagement	longest retention				
			O=C(c1ccc(F)cc1)N1CCN(C(=O)c2cc(Cc3n[nH]c(=O)c4ccccc34)ccc2F)CC1 [^19F-PARPi]	very similar effects on JHU-LX22 cell viability as other inhibitors; also recorded: very similar effects on JHU-LX22 cell viability as olaparib		longest retention	> 90%	> 90%	≤ 30%	more than 50%
